Measurements as given in paper PMC9116245, “New 1,2,3-triazole linked ciprofloxacin-chalcones induce DNA damage by inhibiting human topoisomerase I& II and tubulin polymerization” (Journal of Enzyme Inhibition and Medicinal Chemistry, 2022).

Experiments:
[1] = test system: 786-0; assay: NCI one-dose screen; type: cell-based; conditions: Homo sapiens; 786-0, 10 µM; read-out: Growth Percent
How it was run: (§1)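 Growth percent read-out. One-concentration exposure (10 µM) across the standard NCI-60 human cell line panel, here 59 lines.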

[2] = test system: BT-549; assay: NCI one-dose screen; type: cell-based; conditions: Homo sapiens; BT-549, 10 µM; read-out: Growth Percent
How it was run: as §1

[3] = test system: CAKI-1; assay: NCI one-dose screen; type: cell-based; conditions: Homo sapiens; CAKI-1, 10 µM; read-out: Growth Percent
How it was run: as §1

[4] = test system: DU-145; assay: NCI one-dose screen; type: cell-based; conditions: Homo sapiens; DU-145, 10 µM; read-out: Growth Percent
How it was run: as §1

[5] = test system: EKVX; assay: NCI one-dose screen; type: cell-based; conditions: Homo sapiens, read-out: Growth Percent
How it was run: as §1

[6] = test system: HT29; assay: NCI one-dose screen; type: cell-based; conditions: Homo sapiens, HT-29; HT29, 10 µM; read-out: Growth Percent
How it was run: as §1

[7] = test system: IGROV1; assay: NCI one-dose screen; type: cell-based; conditions: Homo sapiens, IGROV-1; IGROV1, 10 µM; read-out: Growth Percent
How it was run: as §1

[8] = test system: K-562; assay: NCI one-dose screen; type: cell-based; conditions: Homo sapiens, K562; K-562, 10 µM; read-out: Growth Percent
How it was run: as §1

[9] = test system: KM12; assay: NCI one-dose screen; type: cell-based; conditions: Homo sapiens; KM12, 10 µM; read-out: Growth Percent
How it was run: as §1

[10] = test system: MDA-MB-231/ATCC; assay: NCI one-dose screen; type: cell-based; conditions: Homo sapiens, read-out: Growth Percent
How it was run: as §1

[11] = test system: MOLT-4; assay: NCI one-dose screen; type: cell-based; conditions: Homo sapiens; MOLT-4, 10 µM; read-out: Growth Percent
How it was run: as §1

[12] = test system: NCI-H226; assay: NCI one-dose screen; type: cell-based; conditions: Homo sapiens; NCI-H226, 10 µM; read-out: Growth Percent
How it was run: as §1

[13] = test system: OVCAR-3; assay: NCI one-dose screen; type: cell-based; conditions: Homo sapiens; OVCAR-3, 10 µM; read-out: Growth Percent
How it was run: as §1

[14] = test system: OVCAR-5; assay: NCI one-dose screen; type: cell-based; conditions: Homo sapiens; OVCAR-5, 10 µM; read-out: Growth Percent
How it was run: as §1

[15] = test system: OVCAR-8; assay: NCI one-dose screen; type: cell-based; conditions: Homo sapiens; OVCAR-8, 10 µM; read-out: Growth Percent
How it was run: as §1

[16] = test system: SF-539; assay: NCI one-dose screen; type: cell-based; conditions: Homo sapiens; SF-539, 10 µM; read-out: Growth Percent
How it was run: as §1

[17] = test system: SK-MEL-28; assay: NCI one-dose screen; type: cell-based; conditions: Homo sapiens; SK-MEL-28, 10 µM; read-out: Growth Percent
How it was run: as §1

[18] = test system: SK-MEL-2; assay: NCI one-dose screen; type: cell-based; conditions: Homo sapiens; SK-MEL-2, 10 µM; read-out: Growth Percent
How it was run: as §1

[19] = test system: SK-OV-3; assay: NCI one-dose screen; type: cell-based; conditions: Homo sapiens; SK-OV-3, 10 µM; read-out: Growth Percent
How it was run: as §1

[20] = test system: SN12C; assay: NCI one-dose screen; type: cell-based; conditions: Homo sapiens, read-out: Growth Percent
How it was run: as §1

[21] = test system: SNB-19; assay: NCI one-dose screen; type: cell-based; conditions: Homo sapiens; SNB-19, 10 µM; read-out: Growth Percent
How it was run: as §1

[22] = test system: SNB-75; assay: NCI one-dose screen; type: cell-based; conditions: Homo sapiens; SNB-75, 10 µM; read-out: Growth Percent
How it was run: as §1

[23] = test system: SR; assay: NCI one-dose screen; type: cell-based; conditions: Homo sapiens, read-out: Growth Percent
How it was run: as §1

[24] = test system: SW-620; assay: NCI one-dose screen; type: cell-based; conditions: Homo sapiens; SW-620, 10 µM; read-out: Growth Percent
How it was run: as §1

[25] = test system: TK-10; assay: NCI one-dose screen; type: cell-based; conditions: Homo sapiens; TK-10, 10 µM; read-out: Growth Percent
How it was run: as §1

[26] = test system: U251; assay: NCI one-dose screen; type: cell-based; conditions: Homo sapiens, U-251; U251, 10 µM; read-out: Growth Percent
How it was run: as §1

[27] = test system: UACC-257; assay: NCI one-dose screen; type: cell-based; conditions: Homo sapiens; UACC-257, 10 µM; read-out: Growth Percent
How it was run: as §1

[28] = test system: UACC-62; assay: NCI one-dose screen; type: cell-based; conditions: Homo sapiens; UACC-62, 10 µM; read-out: Growth Percent
How it was run: as §1

[29] = test system: HCT-116; assay: NCI one-dose screen; type: cell-based, human; conditions: HCT-116, 10 µM; for activity at 10 µM: Homo sapiens, read-out: Growth Percent
How it was run: as §1

[30] = test system: RPMI-8226; assay: NCI one-dose screen; type: cell-based, human; conditions: RPMI-8226, 10 µM; for activity at 10 µM: Homo sapiens, read-out: Growth Percent
How it was run: as §1

[31] = test system: 59 human cancer cell lines; assay: NCI one-dose screen, whole panel; type: cell-based; conditions: for activity at 10 µM: Homo sapiens, mean over the panel, read-out: Mean Growth Percent
How it was run: as §1

[32] = test system: Caco-2; assay: MTT assay; type: cell-based; conditions: Homo sapiens; Caco-2, MTT assay, 24 h incubation
How it was run: (§2)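 Colorectal lines treated with 1, 5, 10, 20, 40, 80 or 100 µM compound, or DMSO vehicle. Proliferation read by MTT reduction.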

[33] = test system: HCT116; assay: MTT assay; type: cell-based; conditions: Homo sapiens, HCT-116, 24 h incubation
How it was run: as §2

[34] = test system: HT-29; assay: MTT assay; type: cell-based; conditions: Homo sapiens; HT-29, MTT assay, 24 h incubation
How it was run: as §2

Compound | activity at 10 µM [1] [%] | activity at 10 µM [2] [%] | activity at 10 µM [3] [%] | activity at 10 µM [4] [%] | activity at 10 µM [5] [%] | activity at 10 µM [6] [%] | activity at 10 µM [7] [%] | activity at 10 µM [8] [%] | activity at 10 µM [9] [%] | activity at 10 µM [10] [%] | activity at 10 µM [11] [%] | activity at 10 µM [12] [%] | activity at 10 µM [13] [%] | activity at 10 µM [14] [%] | activity at 10 µM [15] [%] | activity at 10 µM [16] [%] | activity at 10 µM [17] [%] | activity at 10 µM [18] [%] | activity at 10 µM [19] [%] | activity at 10 µM [20] [%] | other results
COc1ccc(/C=C/C(=O)c2ccc(-n3cc(CN4CCN(c5cc6c(cc5F)c(=O)c(C(=O)O)cn6C5CC5)CC4)nn3)cc2)cc1OC [Compound 4i, (E)-1-cyclopropyl-7-(4-((1-(4-(3–(3,4-dimethoxyphenyl)acryloyl)phenyl)-1H-1,2,3-triazol-4-yl)methyl)piperazin-1-yl)-6-fluoro-4-oxo-1,4-dihydroquinoline-3-carboxylic acid] | 71.9 | 65.8 | 67.8 | 83.2 | 96.6 | 29.6 | 26.6 | 42.5 | 42.6 | 67.2 | 64.2 | 67.3 | 39.3 | 92.1 | 67.4 | 50.8 | 79.8 | 97 | 76.9 | 32.6 | activity at 10 µM [21]: 67.7%; activity at 10 µM [22]: 58.3%; activity at 10 µM [23]: -2.25%; activity at 10 µM [24]: 32.8%; activity at 10 µM [25]: 104%; activity at 10 µM [26]: 41.4%; activity at 10 µM [27]: 78.7%; activity at 10 µM [28]: 53.9%; Growth Percent [29]: -31.29%; activity at 10 µM [29]: -31.3%; activity at 10 µM [30]: -24.4%; Growth Percent [30]: -24.42%; activity at 10 µM [31]: 59.5%; IC50 [32]: 11.3 ± 2.39 µM; IC50 [33]: 4.87 ± 0.78 µM; IC50 [34]: 18.6 ± 3.19 µM
COc1cc(/C=C/C(=O)c2ccc(-n3cc(CN4CCN(c5cc6c(cc5F)c(=O)c(C(=O)O)cn6C5CC5)CC4)nn3)cc2)cc(OC)c1OC [Compound 4j, (E)-1-cyclopropyl-6-fluoro-4-oxo-7–(4-((1–(4-(3-(3,4,5-trimethoxyphenyl)acryloyl)phenyl)-1H-1,2,3-triazol-4-yl)methyl)piperazin-1-yl)-1,4-dihydroquinoline-3-carboxylic acid] | 43.6 | 51 | 60 | 45.8 | 80 | 4.76 | -24.8 | 7.81 | 8.81 | 55.4 | 10.5 | 32.4 | -16.1 | 72.3 | 39.7 | 7.09 | 34.6 | 97.4 | 67.5 | 14.9 | activity at 10 µM [21]: 44.7%; activity at 10 µM [22]: 65.5%; activity at 10 µM [23]: -12.4%; activity at 10 µM [24]: 9.41%; activity at 10 µM [25]: 80%; activity at 10 µM [26]: 10.6%; activity at 10 µM [27]: 62%; activity at 10 µM [28]: 54.1%; Growth Percent [29]: -39.51%; activity at 10 µM [29]: -39.5%; activity at 10 µM [30]: -15.8%; Growth Percent [30]: -15.84%; activity at 10 µM [31]: 33.7%; Growth Percent ([31]; majority of cancer cell lines, 10 µM): 67.46 to −39.69%; IC50 [32]: 7.14 ± 2.48 µM; IC50 [33]: 2.53 ± 0.31 µM; IC50 [34]: 13.2 ± 2.4 µM
